{"source": "ChEMBL document CHEMBL1201862", "about": "“PubChem BioAssay data set” (2004)", "key": {"[1]": {"target": "T1, DNA dC->dU-editing enzyme APOBEC-3G (Homo sapiens, UniProt Q9HC16)", "T1 sequence (Q9HC16 whole entry)": "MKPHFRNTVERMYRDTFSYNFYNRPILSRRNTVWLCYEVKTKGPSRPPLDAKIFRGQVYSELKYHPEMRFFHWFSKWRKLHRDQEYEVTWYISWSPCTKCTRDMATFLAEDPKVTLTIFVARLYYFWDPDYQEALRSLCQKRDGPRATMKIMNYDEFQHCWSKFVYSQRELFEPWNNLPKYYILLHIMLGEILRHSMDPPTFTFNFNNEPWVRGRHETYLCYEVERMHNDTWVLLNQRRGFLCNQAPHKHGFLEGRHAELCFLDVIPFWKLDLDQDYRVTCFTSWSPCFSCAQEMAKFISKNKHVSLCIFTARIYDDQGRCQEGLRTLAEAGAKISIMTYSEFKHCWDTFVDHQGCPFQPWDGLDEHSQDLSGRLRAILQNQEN", "test": "APOBEC3G deaminase inhibitors, SAR follow-up, biochemical, fluorescence, single-stranded DNA substrate (AID 602136)", "format": "functional", "conditions": "read-out: IC50_Mean"}, "[2]": {"target": "T2, DNA dC->dU-editing enzyme APOBEC-3A (Homo sapiens, UniProt P31941)", "T2 sequence (P31941 whole entry)": "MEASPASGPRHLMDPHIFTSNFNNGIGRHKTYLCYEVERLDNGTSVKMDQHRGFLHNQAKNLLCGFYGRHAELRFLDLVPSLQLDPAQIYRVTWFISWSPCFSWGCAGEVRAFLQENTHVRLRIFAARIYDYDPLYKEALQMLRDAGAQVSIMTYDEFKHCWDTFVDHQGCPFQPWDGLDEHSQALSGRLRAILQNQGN", "test": "SAR analysis of small molecule inhibitors of APOBEC3A DNA Deaminase via a fluorescence-based single-stranded DNA deaminase assay.", "format": "functional", "conditions": "read-out: IC50_Mean"}, "[3]": {"target": "T1, DNA dC->dU-editing enzyme APOBEC-3G", "test": "SAR analysis of small molecule inhibitors of APOBEC3G DNA Deaminase via a fluorescence-based single-stranded DNA deaminase assay - Set 2.", "format": "functional", "conditions": "read-out: IC50_Mean"}, "[4]": {"target": "T2, DNA dC->dU-editing enzyme APOBEC-3A", "test": "SAR analysis of small molecule inhibitors of APOBEC3A DNA Deaminase via a fluorescence-based single-stranded DNA deaminase assay - Set 2.", "format": "functional", "conditions": "read-out: IC50_Mean"}, "[5]": {"tested_on": "Vero", "test": "cells", "format": "functional", "conditions": "Chlorocebus sabaeus"}, "[6]": {"target": "72 kDa type IV collagenase (Homo sapiens, UniProt P08253)", "test": "Dose Response validation of uHTS RPN11 inhibitor hits using a MMP-2 Fluorescence assay.", "format": "functional"}, "[7]": {"test": "microbe, parasite or virus in culture", "format": "functional", "conditions": "Mycobacterium tuberculosis"}, "[8]": {"target": "Prothrombin (Bos taurus, UniProt P00735)", "test": "thrombin inhibition, dose response, biochemical, fluorescence polarization, uHTS hits (AID 602369)", "format": "functional"}, "[9]": {"target": "26S proteasome non-ATPase regulatory subunit 14 (Homo sapiens, UniProt O00487)", "test": "inhibition of proteasome subunit RPN11 – biochemical, fluorescence polarization, uHTS hits, confirmation (AID 602368)", "format": "functional"}, "[10]": {"target": "Protein disulfide-isomerase (Homo sapiens, UniProt P07237)", "sequence (P07237 whole entry)": "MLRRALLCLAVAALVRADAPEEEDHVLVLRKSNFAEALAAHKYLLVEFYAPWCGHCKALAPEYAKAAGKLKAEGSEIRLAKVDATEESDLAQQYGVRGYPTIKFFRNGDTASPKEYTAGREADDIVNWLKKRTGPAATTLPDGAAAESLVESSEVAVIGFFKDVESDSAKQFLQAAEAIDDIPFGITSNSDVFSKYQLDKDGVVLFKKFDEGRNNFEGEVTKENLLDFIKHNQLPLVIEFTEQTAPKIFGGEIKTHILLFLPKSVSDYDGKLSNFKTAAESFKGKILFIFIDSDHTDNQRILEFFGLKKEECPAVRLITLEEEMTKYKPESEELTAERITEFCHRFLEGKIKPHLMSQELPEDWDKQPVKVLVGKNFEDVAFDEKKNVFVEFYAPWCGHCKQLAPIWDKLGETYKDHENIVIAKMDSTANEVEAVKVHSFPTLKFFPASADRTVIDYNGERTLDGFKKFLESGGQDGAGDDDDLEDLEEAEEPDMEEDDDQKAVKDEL", "test": "PDI inhibitors, insulin aggregation turbidity, dose response, biochemical, absorbance, cherry-picked samples (AID 602350)", "format": "functional"}, "[11]": {"tested_on": "HEK293", "test": "inhibitors of LMP1-driven NF-kB reporter, dose response, cell-based, HEK293, luciferase, cherry-pick (AID 588343)", "format": "functional", "conditions": "Homo sapiens"}, "[12]": {"test": "non-specific cell cytotoxicity, dose response, cytotoxicity control for PAX8 inhibitor project, plate reader, dry powder samples (AID 743021)", "format": "functional, cell-based"}, "[13]": {"target": "T3, ATP-dependent translocase ABCB1 (Homo sapiens, UniProt P08183)", "T3 sequence (P08183 whole entry)": "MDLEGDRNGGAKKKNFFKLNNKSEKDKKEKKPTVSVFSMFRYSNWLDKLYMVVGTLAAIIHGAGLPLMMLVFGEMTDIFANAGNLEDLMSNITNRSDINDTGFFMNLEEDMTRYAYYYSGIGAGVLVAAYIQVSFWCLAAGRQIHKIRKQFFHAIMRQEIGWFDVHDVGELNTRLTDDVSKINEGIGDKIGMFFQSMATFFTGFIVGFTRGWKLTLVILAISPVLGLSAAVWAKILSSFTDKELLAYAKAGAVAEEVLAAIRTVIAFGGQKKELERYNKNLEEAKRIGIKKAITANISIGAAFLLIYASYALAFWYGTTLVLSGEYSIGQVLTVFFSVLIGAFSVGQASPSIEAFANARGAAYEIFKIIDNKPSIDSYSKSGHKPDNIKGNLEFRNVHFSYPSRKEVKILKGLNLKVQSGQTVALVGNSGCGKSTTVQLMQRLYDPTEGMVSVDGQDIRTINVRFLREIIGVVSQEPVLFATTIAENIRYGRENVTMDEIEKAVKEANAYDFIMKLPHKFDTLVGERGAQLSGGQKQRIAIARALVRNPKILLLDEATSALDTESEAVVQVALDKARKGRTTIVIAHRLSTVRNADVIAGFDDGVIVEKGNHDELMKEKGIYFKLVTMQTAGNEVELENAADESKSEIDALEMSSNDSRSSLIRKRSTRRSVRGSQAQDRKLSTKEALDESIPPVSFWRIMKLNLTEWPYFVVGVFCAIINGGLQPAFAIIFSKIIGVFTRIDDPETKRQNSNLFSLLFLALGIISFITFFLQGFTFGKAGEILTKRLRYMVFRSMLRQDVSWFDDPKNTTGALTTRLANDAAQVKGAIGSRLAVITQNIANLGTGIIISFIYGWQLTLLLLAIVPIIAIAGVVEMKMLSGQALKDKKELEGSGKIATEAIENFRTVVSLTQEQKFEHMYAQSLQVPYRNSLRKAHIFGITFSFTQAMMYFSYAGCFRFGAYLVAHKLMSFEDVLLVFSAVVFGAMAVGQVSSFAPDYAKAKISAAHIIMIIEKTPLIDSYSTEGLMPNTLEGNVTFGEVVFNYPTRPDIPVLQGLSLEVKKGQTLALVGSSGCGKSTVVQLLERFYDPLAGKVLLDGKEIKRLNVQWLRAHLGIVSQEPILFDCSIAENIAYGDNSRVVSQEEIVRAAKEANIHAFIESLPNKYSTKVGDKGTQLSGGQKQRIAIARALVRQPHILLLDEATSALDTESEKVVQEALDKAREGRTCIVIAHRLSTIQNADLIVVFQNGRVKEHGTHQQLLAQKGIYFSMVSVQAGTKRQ", "test": "ABCB1 efflux inhibitor potency, dose response, Jurkat-DNR cells, JC-1, flow cytometry, set 2 (AID 504569);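 further: potency of pump inhibitors that raise cellular JC-1 green fluorescence up to the nicardipine level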", "format": "functional", "conditions": "read-out: EC50_MICROM_"}, "[14]": {"target": "Melanocortin receptor 4 (Homo sapiens, UniProt P32245)", "test": "MC4R antagonist potency on cAMP, dose response, cell-based, TR-FRET, biased antagonists (AID 602298);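 further: antagonist potency against agonist-stimulated cAMP production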", "format": "functional"}, "[15]": {"target": "T3, ATP-dependent translocase ABCB1", "test": "ABCG2 efflux pump inhibitor potency, dose response, Ig-MXP3 cells, JC-1, flow cytometry, set 2 (AID 504566);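 further: flow cytometry median green fluorescence of retained JC-1 dye; potency of efflux pump inhibition measured as rising substrate retention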", "format": "functional", "conditions": "read-out: EC50_MICROM_"}, "[16]": {"target": "Paired box protein Pax-8 (Homo sapiens, UniProt Q06710)", "test": "inhibitors of PAX8-driven TPO luciferase reporter, dose response, RMG-I cells, cherry-pick (AID 687027);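 further: luciferase reporter driven by Pax8 target thyroperoxidase promoter measured by SteadyGlo luminescence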", "format": "functional, cell-based"}, "[17]": {"test": "nonselective inhibitors of cellular cAMP signaling, dose response, counter-screen for MC4R biased antagonist project, cell-based, TR-FRET cAMP detection (AID 602305);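 further: U2OS cells stimulated with forskolin near its EC80 as the cAMP inducer; potency is for inhibition of forskolin-stimulated cAMP signaling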", "format": "functional"}, "[18]": {"tested_on": "H9c2", "test": "cells", "format": "functional, cell-based", "conditions": "Rattus norvegicus, H9c2, Myocardium"}, "[19]": {"test": "Vero cell cytotoxicity, dose response, cytotoxicity control for M. tuberculosis growth inhibitor project, Vero cells, purified and synthesized compounds, set 4 (AID 504854)", "format": "functional", "conditions": "Mycobacterium tuberculosis"}, "[20]": {"test": "THP-1 cell cytotoxicity, cytotoxicity control, set 4 (AID 504911)", "format": "functional", "conditions": "Mycobacterium tuberculosis"}, "[21]": {"target": "Dual specificity protein kinase CLK4 (Homo sapiens, UniProt Q9HAZ1)", "sequence (Q9HAZ1 whole entry)": "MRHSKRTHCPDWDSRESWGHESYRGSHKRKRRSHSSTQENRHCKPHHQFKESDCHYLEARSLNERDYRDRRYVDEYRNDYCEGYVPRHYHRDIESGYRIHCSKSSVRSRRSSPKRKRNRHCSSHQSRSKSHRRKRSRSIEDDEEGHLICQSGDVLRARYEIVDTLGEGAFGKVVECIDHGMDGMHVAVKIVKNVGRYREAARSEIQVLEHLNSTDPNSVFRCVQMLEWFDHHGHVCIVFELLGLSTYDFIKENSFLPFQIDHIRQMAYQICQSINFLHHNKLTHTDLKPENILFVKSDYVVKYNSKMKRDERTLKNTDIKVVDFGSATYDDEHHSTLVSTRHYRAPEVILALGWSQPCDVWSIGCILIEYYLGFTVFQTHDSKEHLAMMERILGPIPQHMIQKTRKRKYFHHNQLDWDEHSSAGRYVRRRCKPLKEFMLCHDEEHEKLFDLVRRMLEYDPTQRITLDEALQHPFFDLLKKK", "format": "functional"}, "[22]": {"target": "Dual specificity protein kinase CLK2 (Homo sapiens, UniProt P49760)", "format": "functional"}, "[23]": {"target": "Serine/threonine-protein kinase pim-1 (Homo sapiens, UniProt P11309)", "sequence (P11309 whole entry)": "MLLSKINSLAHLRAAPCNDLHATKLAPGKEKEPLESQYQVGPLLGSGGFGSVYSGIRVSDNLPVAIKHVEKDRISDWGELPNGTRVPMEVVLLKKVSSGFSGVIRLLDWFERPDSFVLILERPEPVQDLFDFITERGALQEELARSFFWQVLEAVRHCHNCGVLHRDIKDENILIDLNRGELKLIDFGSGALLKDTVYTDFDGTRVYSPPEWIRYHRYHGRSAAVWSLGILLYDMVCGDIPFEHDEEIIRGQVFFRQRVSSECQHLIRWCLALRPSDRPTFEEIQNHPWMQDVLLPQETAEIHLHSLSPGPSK", "format": "functional"}, "[24]": {"target": "T4, Melanin-concentrating hormone receptor 1 (Homo sapiens, UniProt Q99705)", "T4 sequence (Q99705 whole entry)": "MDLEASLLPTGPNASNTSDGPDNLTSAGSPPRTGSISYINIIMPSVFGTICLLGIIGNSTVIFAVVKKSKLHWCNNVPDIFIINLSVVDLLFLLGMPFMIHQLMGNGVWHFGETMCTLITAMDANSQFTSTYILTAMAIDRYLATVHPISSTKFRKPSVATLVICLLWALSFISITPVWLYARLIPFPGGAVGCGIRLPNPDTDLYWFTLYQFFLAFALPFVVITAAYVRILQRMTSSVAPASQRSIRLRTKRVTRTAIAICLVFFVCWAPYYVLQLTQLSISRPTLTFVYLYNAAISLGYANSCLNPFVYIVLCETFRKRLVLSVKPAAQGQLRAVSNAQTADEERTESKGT", "test": "Late-stage fluorescence-based counterscreen for antagonists of the G-protein coupled receptor 7 (GPR7): cell-based dose response assay to identify antagonists of the melanin-concentrating hormone receptor 1 (MCHR1) Set 5.", "format": "functional"}, "[25]": {"target": "T4, Melanin-concentrating hormone receptor 1", "test": "Late-stage fluorescence-based counterscreen for antagonists of the G-protein coupled receptor 7 (GPR7): cell-based dose response assay to identify antagonists of the melanin-concentrating hormone receptor 1 (MCHR1) Set 6.", "format": "functional"}, "[26]": {"target": "Neuropeptides B/W receptor type 1 (Homo sapiens, UniProt P48145)", "test": "GPR7 antagonist potency, late-stage follow-up, cell-based, fluorescence, dose response, set 6 (AID 588583)", "format": "functional"}, "[27]": {"target": "Cyclin-dependent kinase 19 (Homo sapiens, UniProt Q9BWU1)", "test": "Navigating the Kinome. Panel member name: CDC2L6", "format": "functional"}, "[28]": {"target": "ALK tyrosine kinase receptor (Homo sapiens, UniProt Q9UM73)", "format": "functional"}, "[29]": {"target": "T5, Glycogen synthase kinase-3 beta (Homo sapiens, UniProt P49841)", "T5 sequence (P49841 whole entry)": "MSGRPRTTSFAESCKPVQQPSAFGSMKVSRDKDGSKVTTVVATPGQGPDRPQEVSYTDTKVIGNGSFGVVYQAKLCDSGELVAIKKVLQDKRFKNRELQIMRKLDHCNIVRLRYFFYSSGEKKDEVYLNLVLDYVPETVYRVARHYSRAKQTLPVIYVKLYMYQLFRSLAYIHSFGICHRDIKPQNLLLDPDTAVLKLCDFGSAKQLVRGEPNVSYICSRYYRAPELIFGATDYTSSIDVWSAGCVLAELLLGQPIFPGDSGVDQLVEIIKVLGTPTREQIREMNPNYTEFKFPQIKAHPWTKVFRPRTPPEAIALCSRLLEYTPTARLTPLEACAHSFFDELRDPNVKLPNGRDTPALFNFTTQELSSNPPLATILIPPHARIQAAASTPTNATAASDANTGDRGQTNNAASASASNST", "format": "functional"}, "[30]": {"target": "Glycogen synthase kinase-3 alpha (Homo sapiens, UniProt P49840)", "format": "functional"}, "[31]": {"target": "Receptor-type tyrosine-protein kinase FLT3 (Homo sapiens, UniProt P36888)", "format": "functional"}, "[32]": {"target": "Activin receptor type-1 (Homo sapiens, UniProt Q04771)", "test": "Navigating the Kinome. Panel member name: ACVR1", "format": "functional"}, "[33]": {"target": "Vascular endothelial growth factor receptor 2 (Homo sapiens, UniProt P35968)", "format": "functional"}, "[34]": {"target": "Aurora kinase A (Homo sapiens, UniProt O14965)", "format": "functional"}, "[35]": {"target": "Aurora kinase B (Homo sapiens, UniProt Q96GD4)", "sequence (Q96GD4 whole entry)": "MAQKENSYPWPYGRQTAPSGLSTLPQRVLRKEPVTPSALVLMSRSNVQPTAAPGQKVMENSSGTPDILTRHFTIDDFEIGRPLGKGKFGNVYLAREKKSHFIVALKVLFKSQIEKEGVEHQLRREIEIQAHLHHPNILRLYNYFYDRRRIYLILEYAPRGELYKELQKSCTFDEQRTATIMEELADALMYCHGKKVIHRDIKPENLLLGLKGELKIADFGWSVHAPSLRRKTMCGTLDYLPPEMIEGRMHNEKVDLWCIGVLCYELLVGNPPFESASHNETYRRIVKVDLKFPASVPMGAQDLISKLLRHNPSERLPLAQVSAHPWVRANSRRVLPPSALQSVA", "format": "functional"}, "[36]": {"target": "T5, Glycogen synthase kinase-3 beta", "test": "GSK3beta kinase inhibitors, dose response, biochemical, microfluidics, dry powder samples, set 2 (AID 623989)", "format": "functional"}, "[37]": {"target": "Cyclin-dependent kinase 5/CDK5 activator 1 (Homo sapiens, UniProt Q00535)", "sequence (Q00535 whole entry)": "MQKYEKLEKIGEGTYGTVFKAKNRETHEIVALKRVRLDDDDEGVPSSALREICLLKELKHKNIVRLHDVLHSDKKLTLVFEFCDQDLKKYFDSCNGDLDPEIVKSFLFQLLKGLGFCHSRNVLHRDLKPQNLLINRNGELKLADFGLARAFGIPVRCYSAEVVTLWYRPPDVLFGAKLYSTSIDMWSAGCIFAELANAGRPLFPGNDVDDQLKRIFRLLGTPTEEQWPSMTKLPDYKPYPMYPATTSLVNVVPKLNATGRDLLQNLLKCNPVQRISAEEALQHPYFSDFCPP", "sequence (Q15078 whole entry, further chain)": "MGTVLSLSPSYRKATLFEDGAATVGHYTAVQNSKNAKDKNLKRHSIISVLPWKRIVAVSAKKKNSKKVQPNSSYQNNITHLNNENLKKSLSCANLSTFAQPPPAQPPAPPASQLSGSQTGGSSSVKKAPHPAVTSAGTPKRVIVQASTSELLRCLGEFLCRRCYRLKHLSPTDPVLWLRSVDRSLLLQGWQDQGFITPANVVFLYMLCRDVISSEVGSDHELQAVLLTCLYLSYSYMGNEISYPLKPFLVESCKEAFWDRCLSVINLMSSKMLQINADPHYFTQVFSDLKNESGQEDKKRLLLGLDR", "test": "CDK5-p25 kinase inhibition, dose response, selectivity assay for GSK3beta inhibitor project, biochemical, microfluidic mobility shift, dry powder, set 2 (AID 623979)", "format": "functional"}}, "note": "The source made the active and inactive calls."}
{"smiles": "O=C(NCc1ccc2c(c1)OCO2)c1nn2cccnc2c1Cl", "values": [{"measurement": "IC50", "setting": "[1]", "value": "> 99 µM (inactive)"}, {"measurement": "IC50", "setting": "[2]", "value": "> 99 µM (inactive)"}, {"measurement": "IC50", "setting": "[3]", "value": "49.9 µM (inactive)"}, {"measurement": "IC50", "setting": "[4]", "value": "> 99 µM (inactive)"}]}
{"smiles": "COc1cc(/C=C/C(O)=C2\\C(=O)NC(=O)N(CCc3ccccc3)C2=O)ccc1O", "values": [{"measurement": "CC50", "setting": "[5]", "value": "17.7 µM (active)"}, {"measurement": "IC50", "setting": "[6]", "value": "> 100 µM (inactive)"}, {"measurement": "CC50", "setting": "[7]", "value": "15.9 µM (active)"}, {"measurement": "IC50", "setting": "[8]", "value": "40.6 µM (active)"}, {"measurement": "IC50", "setting": "[9]", "value": "29.2 µM (active)"}]}
{"smiles": "CC[C@]12c3[nH]c4cc(-c5ccco5)ccc4c3CCN1C(=O)[C@@H](CC(=O)NCc1ccc(OC)c(OC)c1)C[C@@H]2C(=O)N1CCN(C(=O)c2ccco2)CC1", "values": [{"measurement": "AC50", "setting": "[10]", "value": "4.25 µM (active)"}]}
{"smiles": "C#Cc1cc(N2CCN(C(=O)c3ccoc3)CC2)n2nc(-c3cccc(Cl)c3)cc2n1", "values": [{"measurement": "AC50", "setting": "[11]", "value": "13.4 µM (active)"}, {"measurement": "AC50", "setting": "[12]", "value": "4.43 µM (active)"}, {"measurement": "EC50", "setting": "[13]", "value": "7.34 µM (active)"}, {"measurement": "IC50", "setting": "[14]", "value": "> 64.6 µM (inactive)"}, {"measurement": "EC50", "setting": "[15]", "value": "1.98 µM (active)"}, {"measurement": "AC50", "setting": "[16]", "value": "3.79 µM (active)"}, {"measurement": "IC50", "setting": "[17]", "value": "> 64.6 µM (inactive)"}, {"measurement": "IC50", "setting": "[18]", "value": "> 79 µM (inactive)"}]}
{"smiles": "CC(C)NC(=O)CSc1nc2ccccc2c(=O)[nH]1", "values": [{"measurement": "CC50", "setting": "[19]", "value": "> 100 µM (active)"}, {"measurement": "CC50", "setting": "[20]", "value": "> 100 µM (active)"}]}
{"smiles": "COCCn1c(C)c(C)sc1=NC(=O)c1cc(SC)ccc1Cl", "values": [{"measurement": "Ki", "setting": "[21]", "value": "5.01 µM (active)"}, {"measurement": "Ki", "setting": "[22]", "value": "6.31 µM (active)"}, {"measurement": "Ki", "setting": "[23]", "value": "6.31 µM (active)"}]}
{"smiles": "COc1ccc(Oc2c(Cl)cnn(C3=Nc4cc(Cl)ccc4Oc4ncccc43)c2=O)cc1", "values": [{"measurement": "IC50", "setting": "[24]", "value": "8.51 µM (active)"}]}
{"smiles": "N#CC(c1ccccc1F)c1c(Cl)cnn(Cc2cccc3ccccc23)c1=O", "note": "(configuration not stated)", "values": [{"measurement": "IC50", "setting": "[25]", "value": "937 nM (active)"}, {"measurement": "IC50", "setting": "[26]", "value": "937 nM (active)"}]}
{"smiles": "Cn1cc(Nc2ncc(Br)c(Nc3cccc(C(N)=O)c3)n2)cn1", "values": [{"measurement": "Ki", "setting": "[27]", "value": "6.31 µM (active)"}, {"measurement": "Ki", "setting": "[28]", "value": "3.16 µM (active)"}]}
{"smiles": "CCc1cnn2c(NCc3ccc[n+]([O-])c3)cc(N3CCCCC3CCO)nc12", "note": "(configuration not stated)", "values": [{"measurement": "Ki", "setting": "[29]", "value": "1.26 µM (active)"}, {"measurement": "Ki", "setting": "[30]", "value": "1.58 µM (active)"}, {"measurement": "Ki", "setting": "[31]", "value": "> 3.16 µM (inactive)"}, {"measurement": "Ki", "setting": "[32]", "value": "> 3.98 µM (inactive)"}]}
{"smiles": "O=C1NC(=S)NC(=O)C1=Cc1ccc(-c2ccc(C(=O)O)c(O)c2)o1", "values": [{"measurement": "Ki", "setting": "[33]", "value": "> 5.01 µM (inactive)"}, {"measurement": "Ki", "setting": "[34]", "value": "126 nM (active)"}, {"measurement": "Ki", "setting": "[35]", "value": "39.8 nM (active)"}]}
{"smiles": "O=C(Cc1cccc2ccccc12)Nc1cn(C2CCC2)cn1", "values": [{"measurement": "AC50", "setting": "[36]", "value": "8.41 µM (active)"}, {"measurement": "AC50", "setting": "[37]", "value": "137 nM (active)"}]}
